In patent publication US20110071150A1 (priority 2009, published 2011):

tested on: Jurkat IL-2 Production; assay: Jurkat IL-2 Production Assay; format: cell-based; details: Homo sapiens, Jurkat cell (ATCC), 18-20 h incubation, PHA 5 μg/mL with 1% FBS, or PMA/Ionomycin with 30% FBS (table does not say which)
Description: Jurkat IL-2 Production Assay
Cell: Jurkat cell (ATCC) was grown in RPMI 1640 with 10% FBS and 1% penicillin/streptomycin. The cell density was kept at 1.2-1.8×10^6/mL in culture flask before seeding into culture plate, and the cell density in the plate was 0.5×10^6/[…]/well.
Culture media: RPMI 1640 with 1% FBS or 30% FBS for high serum assay.
Test compound: serial dilution was done in 100% DMSO, and intermediate dilution was done with RPMI 1640 medium with 1% FBS. The DMSO final concentration in culture well was 0.25%.
Stimulant: PHA (Sigma#L9017-10MG) was used for the assay with 1% FBS in culture medium, and added after 10 minutes exposure of cell to compound/DMSO. The PHA final concentration in culture well was 5 μg/mL. PMA (Sigma# P-8139 5MG)/Ionomycin (Sigma# 10634-5MG) was used for the assay with 30% FBS in culture medium, and added at same time point as the 1% FBS culture assay. The final concentration of PMA was 50 ng/mL, and Ionomycin final concentration was 500 ng/mL.
Incubation: at 37° C. with 5% CO2 and 95% humidity for 18 h˜20 h.
IC50: IC50 was calculated with the data analysis software XLfit4, General Pharmacology model 251.

First: Cc1cc(F)ccc1-c1ccc2[nH]c(-c3c(F)cccc3F)cc2c1 [Example 91, 2-(2,6-Difluoro-phenyl)-5-(4-fluoro-2-methyl-phenyl)-1H-indole]
Second: COC(=O)c1ccc(-c2ccc3[nH]c(-c4c(F)cccc4F)cc3c2)c(C)c1 [Example 30]
The IC50 of the first is 5.4-fold higher: 456 nM for the first, 85 nM for the second. The second is the more potent here.

First: Cc1cc(C#N)ncc1-c1ccc2[nH]c(-c3cnccc3C)cc2c1 [Example 212, 4-Methyl-5-[2-(4-methyl-pyridin-3-yl)-1H-indol-5-yl]-pyridine-2-carbonitrile]
Second: Cc1cc(C#N)ncc1-c1ccc2[nH]c(-c3c(F)cccc3Cl)cc2c1 [Example 162, 5-(2-(2-chloro-6-fluorophenyl)-1H-indol-5-yl)-4-methylpicolinonitrile]
The IC50 of the first is 13-fold higher: 447 nM for the first, 34 nM for the second.

First: CCn1nc(C(F)(F)F)cc1-c1ccc2[nH]c(C3CCCOC3)cc2c1 (stereo not drawn) [Example 199, 5-(1-ethyl-3-(trifluoromethyl)-1H-pyrazol-5-yl)-2-(tetrahydro-2H-pyran-3-yl)-1H-indole]
Second: Cn1nc(C(F)(F)F)cc1-c1ccc2[nH]c(-c3ccncc3Cl)cc2c1 [Example 36, 2-(3-Chloro-pyridin-4-yl)-5-(2-methyl-5-trifluoromethyl-2H-pyrazol-3-yl)-1H-indole]
The IC50 of the first is 1.5-fold lower: 86 nM for the first, 131 nM for the second.

First: Cc1cc(-c2cncnc2)ncc1-c1ccc2[nH]c(-c3c(F)cccc3F)cc2c1 [Example 210, 2-(2,6-Difluoro-phenyl)-5-(4-methyl-6-pyrimidin-5-yl-pyridin-3-yl)-1H-indole]
Second: Cc1cc(-c2nnco2)ncc1-c1ccc2[nH]c(-c3c(F)cccc3Cl)cc2c1 [Example 119, 2-(2-Chloro-6-fluoro-phenyl)-5-(4-methyl-6-[1,3,4]oxadiazol-2-yl-pyridin-3-yl)-1H-indole]
The IC50 of the first is 4.3-fold higher: 60 nM for the first, 14 nM for the second. The second is the more potent here.

Compared with Cc1sc(-c2cccnc2)nc1-c1ccc2[nH]c(-c3ccc(F)cc3Cl)cc2c1 [Example 67, 2-(2-Chloro-4-fluoro-phenyl)-5-(5-methyl-2-pyridin-3-yl-thiazol-4-yl)-1H-indole], Cc1sc(-c2ccccn2)nc1-c1ccc2[nH]c(-c3ccc(F)cc3Cl)cc2c1 [Example 57, 2-(2-Chloro-4-fluoro-phenyl)-5-(5-methyl-2-pyridin-2-yl-thiazol-4-yl)-1H-indole] is 4.8-fold higher in IC50: 63 nM for the first, 301 nM for the second.

Compared with Cn1nc(-c2cc[nH]n2)cc1-c1ccc2[nH]c(-c3c(F)cccc3F)cc2c1 [Example 108, 2-(2,6-Difluoro-phenyl)-5-(1-methyl-1H,1′H-[3,3]bipyrazolyl-5-yl)-1H-indole], CCn1nc(-c2cnccn2)cc1-c1ccc2[nH]c(-c3c(F)cccc3F)cc2c1 [Example 204, 2-(2,6-difluorophenyl)-5-(1-ethyl-3-(pyrazin-2-yl)-1H-pyrazol-5-yl)-1H-indole] is 9.5-fold lower in IC50: 601 nM for the first, 63 nM for the second.

Going from CCn1nc(-c2cccnc2)cc1-c1ccc2[nH]c(-c3ccccc3Cl)cc2c1 [Example 78, 2-(2-Chloro-phenyl)-5-(2-ethyl-5-pyridin-3-yl-2H-pyrazol-3-yl)-1H-indole] to Cn1nc(-c2cccnc2)cc1-c1ccc2[nH]c(-c3ccccc3Cl)cc2c1 [Example 77, 2-(2-Chloro-phenyl)-5-(2-methyl-5-pyridin-3-yl-2H-pyrazol-3-yl)-1H-indole], the IC50 rises from 95 nM to 169 nM (1.8-fold).

Cc1cc(S(C)(=O)=O)ncc1-c1ccc2[nH]c(-c3c(F)cccc3Cl)cc2c1 [Example 173, 2-(2-Chloro-6-fluoro-phenyl)-5-(6-methanesulfonyl-4-methyl-pyridin-3-yl)-1H-indole] and Cc1cc(C#N)ccc1-c1ccc2[nH]c(-c3c(F)cccc3Cl)cc2c1 [Example 158, 4-[2-(2-chloro-6-fluorophenyl)-1H-indol-5-yl]-3-methylbenzonitrile] are within 1.5-fold of each other in IC50: 12 nM for the first, 16 nM for the second.

Compared with CCc1sc(-c2cnccn2)nc1-c1ccc2[nH]c(-c3c(F)cccc3Cl)cc2c1 [Example 179, 2-(2-Chloro-6-fluoro-phenyl)-5-(5-ethyl-2-pyrazin-2-yl-thiazol-4-yl)-1H-indole], CCn1nc(-c2cnccn2)nc1-c1ccc2[nH]c(-c3c(F)cccc3Cl)cc2c1 [Example 187, 2-(2-Chloro-6-fluoro-phenyl)-5-(2-ethyl-5-pyrazin-2-yl-2H-[1,2,4]triazol-3-yl)-1H-indole] is 3-fold higher in IC50: 23 nM for the first, 69 nM for the second. The first is the more potent here.

Compared with CCn1nc(-c2ccncc2)cc1-c1ccc2[nH]c(-c3c(F)cccc3F)cc2c1 [Example 18, 2-(2,6-Difluoro-phenyl)-5-(2-ethyl-5-pyridin-4-yl-2H-pyrazol-3-yl)-1H-indole], Cn1nc(-c2cccnc2)cc1-c1ccc2[nH]c(-c3cccc(F)c3F)cc2c1 [Example 84, 2-(2,3-Difluoro-phenyl)-5-(2-methyl-5-pyridin-3-yl-2H-pyrazol-3-yl)-1H-indole] is 3.9-fold higher in IC50: 102 nM for the first, 399 nM for the second.

Compared with Cn1nc(-c2cccnc2)cc1-c1ccc2[nH]c(-c3ccccc3F)cc2c1 [Example 75, 2-(2-Fluoro-phenyl)-5-(2-methyl-5-pyridin-3-yl-2H-pyrazol-3-yl)-1H-indole], CCn1nc(-c2cccnc2)nc1-c1ccc2[nH]c(-c3ccccc3Cl)cc2c1 [Example 185, 2-(2-Chloro-phenyl)-5-(2-ethyl-5-pyridin-3-yl-2H-[1,2,4]-triazol-3-yl)-1H-indole] is 4.8-fold lower in IC50: 310 nM for the first, 65 nM for the second.

Compared with Fc1cccc(F)c1-c1cc2cc(-c3cccc(-c4ncco4)c3)ccc2[nH]1 [Example 24, 2-(2,6-Difluoro-phenyl)-5-(3-oxazol-2-yl-phenyl)-1H-indole], COc1cc(-c2ncco2)ccc1-c1ccc2[nH]c(-c3c(F)cccc3F)cc2c1 [Example 103, 2-(2,6-Difluoro-phenyl)-5-(2-methoxy-4-oxazol-2-yl-phenyl)-1H-indole] is 2.4-fold lower in IC50: 427 nM for the first, 176 nM for the second.

Going from Cc1cc(S(=O)(=O)N(C)C)ccc1-c1ccc2[nH]c(-c3ccccc3F)c(C)c2c1 [Example 225, 4-(2-(2-fluorophenyl)-3-methyl-1H-indol-5-yl)-N,N,3-trimethylbenzenesulfonamide] to Cc1c(-c2c(F)cccc2F)[nH]c2ccc(-c3cc(C(F)(F)F)nn3C)cc12 [Example 227], the IC50 rises from 153 nM to 284 nM (1.9-fold). The first is the more potent here.

COc1ccc(-c2ccc3[nH]c(-c4c(F)cccc4F)cc3c2)c(OC)c1 [Example 90, 2-(2,6-Difluoro-phenyl)-5-(2,4-dimethoxy-phenyl)-1H-indole] and Fc1cccc(F)c1-c1cc2cc(-c3ccc(C(F)(F)F)cc3Cl)ccc2[nH]1 [Example 94, 5-(2-Chloro-4-trifluoromethyl-phenyl)-2-(2,6-difluoro-phenyl)-1H-indole] are within 1.5-fold of each other in IC50: 177 nM for the first, 175 nM for the second.

Going from Cc1cc(-c2ncco2)ccc1-c1ccc2[nH]c(-c3c(F)cccc3Cl)cc2c1 [Example 52, 2-(2-Chloro-6-fluoro-phenyl)-5-(2-methyl-4-oxazol-2-yl-phenyl)-1H-indole] to Cc1cc(C#N)ccc1-c1ccc2[nH]c(-c3c(F)cc(OCCO)cc3F)cc2c1 [Example 154, 4-(2-(2,6-difluoro-4-(2-hydroxyethoxy)phenyl)-1H-indol-5-yl)-3-methylbenzonitrile], the IC50 rises from 62 nM to 586 nM (9.5-fold). The first is the more potent here.

Compared with CCn1nc(-c2cccnc2)nc1-c1ccc2[nH]c(-c3c(Cl)cccc3Cl)cc2c1 [Example 186, 2-(2,6-Dichloro-phenyl)-5-(2-ethyl-5-pyridin-3-yl-2H-[1,2,4]triazol-3-yl)-1H-indole], COC(=O)c1ccc(-c2cc3cc(-c4nc(-c5cccnc5)sc4C)ccc3[nH]2)c(C)c1 [Example 65, Methyl-4-[5-(5-methyl-2-pyridin-3-yl-thiazol-4-yl)-1H-indol-2-yl]-benzoic acid methyl ester] is 2.1-fold higher in IC50: 34 nM for the first, 71 nM for the second.

Cn1nc(C(F)(F)F)cc1-c1ccc2[nH]c(-c3cc(F)ccc3Cl)cc2c1 [Example 42, 2-(2-Chloro-5-fluoro-phenyl)-5-(2-methyl-5-trifluoromethyl-2H-pyrazol-3-yl)-1H-indole] and Cn1nc(C(F)(F)F)cc1-c1ccc2[nH]c(-c3ccc(Cl)cc3Cl)cc2c1 [Example 34, 2-(2,4-Dichloro-phenyl)-5-(2-methyl-5-trifluoromethyl-2H-pyrazol-3-yl)-1H-indole] are within 1.5-fold of each other in IC50: 204 nM for the first, 184 nM for the second.

Compared with Cn1nc(C(F)(F)F)cc1-c1ccc2[nH]c(-c3ccccc3Cl)cc2c1 [Example 59, 2-(2-Chloro-phenyl)-5-(2-methyl-5-trifluoromethyl-2H-pyrazol-3-yl)-1H-indole], Cn1nc(C(F)(F)F)cc1-c1ccc2[nH]c(-c3ccncc3F)cc2c1 [Example 44, 2-(3-Fluoro-pyridin-4-yl)-5-(2-methyl-5-trifluoromethyl-2H-pyrazol-3-yl)-1H-indole] is 1.6-fold higher in IC50: 105 nM for the first, 169 nM for the second. The first is the more potent here.

Going from COc1ccc2c(c1)nc(C(F)(F)F)n2-c1ccc2[nH]c(-c3c(F)cccc3F)cc2c1 [Example 2, 1-[2-(2,6-Difluoro-phenyl)-1H-indol-5-yl]-5-methoxy-2-trifluoromethyl-1H-benzoimidazole] to COc1cc(F)c(-c2cc3cc(-c4cc(C(F)(F)F)nn4C)ccc3[nH]2)c(Cl)c1 [Example 201, 2-(2-chloro-6-fluoro-4-methoxyphenyl)-5-(1-methyl-3-(trifluoromethyl)-1H-pyrazol-5-yl)-1H-indole], the IC50 falls from 830 nM to 35 nM (24-fold).

Cc1cc(C#N)ccc1-c1ccc2[nH]c(-c3ccnn3C)cc2c1 [Example 150, methyl-4-(2-(1-methyl-1H-pyrazol-5-yl)-1H-indol-5-yl)benzonitrile] gave an IC50 of 618 nM.
